Format in all cases: cell-based
Experiment [1] relates to CEM cells. As to the kind of experiment: Positive selection with 6TG of HPRT knockdown / knockout CEM cells (ex vivo). As for the experimental part:
CEM cells were transduced with a vector including a nucleic acid sequence designed to knockdown HPRT and a nucleic acid sequence encoding the green fluorescent protein or transfected with a nanocapsule including CRISPR/Cas9 and a sgRNA to HPRT at day 0. 6-TG was added into the medium from day 3 to day 17. The medium was refreshed every 3 to 4 days. GFP as analyzed on flow machine and InDel % is analyzed by T7E1 assay. FIG. 10A illustrates that the GFP+ population of transduced […] cells increased from day 3 to day 17 under treatment of 6TG while GFP+ population was almost steady without 6-TG. […] It should be noted that 6TG selection process occurred faster on HPRT knockout cells rather than HPRT knockdown cells (MOI=1) at the same concentration of 6TG from day 3 to day 17.

For experiment [2], the system named is K562 cells. As to the kind of experiment: Positive selection with 6TG of HPRT knockdown / knockout K562 cells (ex vivo). As for the experimental part:
K562 cells were transduced with a vector including a nucleic acid sequence designed to knockdown HPRT and a nucleic acid sequence encoding the green fluorescent protein (GFP) (MOI=1/2/5); or were transfected with a nanocapsule including CRISPR/Cas9 and a sgRNA to HPRT (100 ng/5×10^4 cells) at day zero (0). 6-TG was added into the medium from day 3 through day 14. The medium was refreshed every 3 to 4 days. GFP was analyzed on flow machine and InDel % as analyzed with T7E1 assay. FIG. 9A illustrates that the GFP+ population of transduced K562 cells increased from day 3 to day 14 under treatment of 6TG; while the GFP+ population was almost steady without 6-TG treatment. […] It should be noted that 6TG selection process occurred much faster on HPRT knockout cells as compared with the HPRT knockdown cells (MOI=1) at the same concentration of 300 nM of 6TG from day 3 to day 14. The difference between knockdown and knockout could be explained by some level of residual HPRT by the RNAi knockdown approach as compared with the full elimination of HPRT by the knockout approach. Therefore, HPRT-knockout cells were believed to have a much higher tolerance against 6TG and are believed to grow much faster at higher dosages of 6TG (900 nM) compared with HPRT-knockdown cells.

Experiment [3] concerns K562 cells. As to the kind of experiment: Negative selection with MTX for K562 cells transduced with different lentiviral vector designs. As for the experimental part: K562 cells were transduced with either TL20cw-GFP virus soup at dilution factor of 16, TL2Ocw-Ubc/GFP-7SK/sh734 (one sequentially encoding GFP and a shRNA designed to knockdown HPRT) virus soup at dilution factor of 16 and TL2Ocw-7SK/sh734-UBC/GFP (one sequentially encoding a shRNA designed to knockdown HPRT and GFP) virus soup at dilution factor of 16, respectively (see FIG. 13). All cells were cultured with medium containing 0.3 uM of MTX 3 days later. Also shown in FIG. 13 are K562 cells which were transduced by TL20cw-7SK/sh734-UBC/GFP (one encoding a nucleic acid encoding a shRNA designed to knockdown HPRT) virus soup at dilution factor of 1024 one month earlier and where GFP-sh734-transduced cells were positively selected with 300 nM of 6TG 6-TG was selection during that time to reach more than 90% of GFP+ population. […] The relative sh734 expression per VCN for sh734-GFP-transduced cells and GFP-sh73-transduced cells were measured.

Experiment [4] concerns CEM cells. As to the kind of experiment: Negative selection with MTX or MPA of transduced or transfected CEM cells. The settings on record: day 0 to day 14; for GFP population of transduced cells under treatment: CEM experiment (K562 in the source), steady for untreated group.
Experiment [5] deals with K562 cells. As to the kind of experiment: Negative selection with MTX of transduced or transfected K562 cells. As to conditions: 0.3 uM MTX, day 0 to day 14. As for the experimental part: Transduced or transfected K562 cells (such as those from Example 6) were cultured with or without MTX from day 0 to day 14. The medium was refreshed every 3 to 4 days. GFP was analyzed on flow machine and InDel % was analyzed by T7E1 assay. […] FIG. 11B illustrates that the transfected K562 cells were eliminated under treatment with 0.3 uM of MTX at a faster pace as compared with the HPRT-KD population.

As to `Nc1nc2nc[nH]c2c(=S)[nH]1` [6TG, 6-thioguanine], the “Speed of selection of HPRT knockout CEM cells, higher dosage versus 300/600 nM of 6TG” value in the experiment with CEM cells [1] (900 nM 6TG compared with 300/600 nM, day 3 to 17) was “faster selection”. Also, the “GFP+ population of transduced cells under treatment of 6TG” value with CEM cells [1] (CEM experiment (K562 in the source), HPRT knockdown vector with GFP, 6-TG day 3 to day 17, almost steady without 6-TG) is “increased”. Also, the “Speed of 6TG selection on HPRT knockout cells compared with HPRT knockdown cells (MOI=1)” value is on record as “faster” with CEM cells [1] (CEM, same concentration of 6TG, day 3 to day 17) and “much faster” in the experiment with K562 cells [2] (K562, 300 nM 6TG, day 3 to day 14). In the experiment on CEM cells [1] (CRISPR/Cas9 + sgRNA to HPRT nanocapsule, day 3 to 17, InDel % by T7E1 assay), the “HPRT knockout population of CEM cells under treatment of 6TG” value is recorded as “increased”. Moreover, the “Speed of selection of HPRT knockout K562 cells, higher dosage versus 300/600 nM of 6TG” value in the experiment with K562 cells [2] (900 nM 6TG compared with 300/600 nM, day 3 to 14) is “faster selection”. The “HPRT knockout population of K562 cells under treatment of 6TG” value in the experiment on K562 cells [2] (CRISPR/Cas9 + sgRNA to HPRT nanocapsule, day 3 to 14, InDel % by T7E1 assay) is reported as “increased”. Moreover, the “GFP+ population of transduced K562 cells under treatment of 6TG” value in the experiment on K562 cells [2] (HPRT knockdown vector with GFP, MOI=1/2/5, 6-TG in medium day 3 to day 14, flow, almost steady without 6-TG) is given as “increased”. Besides, in the experiment with K562 cells [3] (300 nM 6TG, K562 transduced at dilution factor of 1024 one month earlier), the “GFP+ population reached by positive selection with 6TG” value is recorded as “more than 90%”.
Take `COc1c(C)c2c(c(O)c1C/C=C(\C)CCC(=O)O)C(=O)OC2` [MPA, mycophenolic acid]: in the experiment on CEM cells [4] (1 uM MPA), the “GFP population of transduced cells under treatment” value (“GFP population of transduced cells” below) is “decreased” and the “HPRT knockout population of CEM cells under treatment” value was “eliminated at a faster pace”. In the experiment with CEM cells [4] (10 uM MPA), the “GFP population of transduced cells” value is “decreased” and the “HPRT knockout population of CEM cells under treatment” value is listed as “eliminated at a faster pace”.
`CN(Cc1cnc2nc(N)nc(N)c2n1)c1ccc(C(=O)N[C@@H](CCC(=O)O)C(=O)O)cc1` [MTX, methotrexate]: in the experiment on CEM cells [4] (0.3 uM MTX), the “GFP population of transduced cells” value was “decreased” and the “HPRT knockout population of CEM cells under treatment” value is recorded as “eliminated at a faster pace”. In the experiment on K562 cells [3] (0.3 uM MTX, sh734-high-expression versus sh734-low-expression lentiviral vector), the “Deselection of transduced K562 cells by methotrexate” value is given as “could only deselect cells transduced with sh734-high-expression lentiviral vector”. Besides, the “GFP population of transduced K562 cells under treatment of MTX” value in the experiment on K562 cells [5] (HPRT knockdown, steady without MTX) is recorded as “decreased”. For the same molecule, in the experiment on K562 cells [5] (faster pace than HPRT-KD population), the “Transfected (HPRT knockout) K562 cells under treatment with MTX” value is given as “eliminated”.
